Experimental data published in patent US5420129A, “Phenylsulfonylamide pyrimidine” (Hoffmann-La Roche Inc., priority 1992, dated 1995).

Experiments:
[1] = target: endothelin receptors (human placenta membranes); experiment: Inhibition of endothelin binding to human placenta membranes (125I-endothelin); settings: 125I-endothelin 20 pM, 20° C. for 2 hours or 4° C. for 24 hours, read-out: IC50 (concentration required to inhibit 50% of the specific binding of 125I-endothelin)
Procedure: I. Inhibition of endothelin binding to human placenta membranes (see. Life Sci 44:1429 (1989))
Human placenta is homogenized in 5 mM Tris buffer, pH 7.4, which contains 1 mM MgCl2 and 250 mM sucrose. The homogenizate is centrifuged at 4° C. and 3000 g for 15 minutes, the supernatant containing the plasma membrane fraction is centrifuged with 72000 g for 30 minutes and the precipitate is washed with 75 mM Tris buffer, pH 7.4, which contains 25 mM MgCl2. Thereafter, precipitate obtained from in each case 10 g of original tissue is suspended in 1 ml of 75 mM Tris buffer, pH 7.4, containing 25 mM MgCl2 and 250 mM sucrose, and freeze-dried at --20° C. in 1 ml aliquots.
For the binding assay, the freeze-dried membrane preparations are thawed and, after centrifugation at 20° C. and 25000 g for 10 minutes, re-suspended in assay buffer (50 mM Tris buffer, pH 7.4, containing 25 mM MnCl2, 1 mM EDTA and 0.5% of bovine serum albumin). 100 μl of this membrane suspension containing 70 μg of protein are incubated with 50 μl of ^125 I-endothelin (specific activity 2200 Ci/mMol) in assay buffer (25000 cpm, final concentration 20 pM) and 100 μl of assay buffer containing varying concentrations of test compound. The incubation is carried out at 20° C. for 2 hours or at 4° C. for 24 hours. The separation of free and membrane-bound radioligands is carried out by filtration over a glass fiber filter.
The inhibitory activity of compounds of formula I determined in test procedure I is given in Table 1 as the IC50, that as the concentration […] which is required to inhibit 50% of the specific binding of ^1251 -endothelin.

isolated rat aorta rings = experiment: Endothelin-induced contractions in isolated rat aorta rings; parameters: species or system rat (Wistar-Kyoto); settings: in the absence of test compounds; endothelium removed; 37° C.; read-out: EC50 of endothelin (concentration required for a half-maximum contraction)
Procedure: II. Inhibition of endothelin-induced contractions in isolated rat aorta rings
Rings with a length of 5 mm were cut out from the thorax aorta of adult Wistar-Kyoto rats. The endothelium was removed by lightly rubbing the internal surface. Each ring was immersed at 37° C. in 10 ml of Krebs-Henseleit solution in an isolated bath while gassing with 95% O2 and 5% CO2. The isometric stretching of the rings was measured. The rings were stretched to a pre-tension of 3 g. After incubation for 10 minutes with the test compound or vehicle cumulative dosages of endothelin-1 were added. The activity of the test compound was determined by calculating the dosage ratios, i.e. the shift to the right (shift to higher values) of the EC50 of endothelin induced by 100 μM of test compound, with EC50 denoting the endothelin concentration required for a half-maximum contraction. […] The EC50 of endothelin in the absence of test compounds is 0.3 nM.

Compound	IC50 [1] [nM]	EC50 (isolated rat aorta rings) [nM]
COc1ccc(Cl)c(Oc2c(COCCO)nc(N3CCOCC3)nc2NS(=O)(=O)c2ccc(C(C)(C)C)cc2)c1 [Example 5, 4-tert-butyl-N-[5-(2-chloro-5methoxy-phenoxy)-6-(2-hydroxy-ethoxymethyl)-2-(morpholin-4-yl)-pyrimidin-4-yl]-benzenesulphonamide]	35	–
COc1ccc(Cl)c(Oc2c(COCCO)ncnc2NS(=O)(=O)c2ccc(C(C)(C)C)cc2)c1 [Example 10, 4-tert-Butyl-N-[5-(2-chloro-5-methoxy-phenoxy)-6-(2-hydroxy-ethoxy-methyl)-pyrimidin-4-yl]-benzenesulphonamide]	184	–
endothelin: endothelin-1, agonist added in cumulative dosages to contract rat aorta rings	–	0.3
COc1ccc(Cl)c(Oc2c(CO)nc(N3CCOCC3)nc2NS(=O)(=O)c2ccc(C(C)(C)C)cc2)c1 [Example 3, 4-tert-butyl-N-[5-(2-chloro-5-methoxy-phenoxy)-6-hydroxymethyl-2-(morpholin-4-yl)-pyrimidin-4-yl]-benzenesulphonamide]	130	–
COc1ccc(Cl)c(Oc2c(COCC(O)CO)nc(N3CCOCC3)nc2NS(=O)(=O)c2ccc(C(C)(C)C)cc2)c1 (racemic) [Example 13, (R,S)-4-tert-butyl-N-[5-(2-chloro-5-methoxy-phenoxy)-6-(2,3-dihydroxy-propoxymethyl)-2-(morpholin-4-yl)-pyrimidin-4yl]-benzenesulphonamide]	182	–
